The values below come from patent publication US9580390B2, “Indazole compounds as kinase inhibitors and method of treating cancer with same” (University Health Network, priority 2011, dated 2017).

What is called IC50 is the concentration that inhibits the measured activity by half. The term GI50 denotes the concentration at which growth is held to half of that of the control.

The target in one assay is T1, human TTK (Homo sapiens, UniProt P33981).
T1 construct: amino terminal GST fusion of full length human TTK; purchased Invitrogen
T1 sequence (P33981 1-857): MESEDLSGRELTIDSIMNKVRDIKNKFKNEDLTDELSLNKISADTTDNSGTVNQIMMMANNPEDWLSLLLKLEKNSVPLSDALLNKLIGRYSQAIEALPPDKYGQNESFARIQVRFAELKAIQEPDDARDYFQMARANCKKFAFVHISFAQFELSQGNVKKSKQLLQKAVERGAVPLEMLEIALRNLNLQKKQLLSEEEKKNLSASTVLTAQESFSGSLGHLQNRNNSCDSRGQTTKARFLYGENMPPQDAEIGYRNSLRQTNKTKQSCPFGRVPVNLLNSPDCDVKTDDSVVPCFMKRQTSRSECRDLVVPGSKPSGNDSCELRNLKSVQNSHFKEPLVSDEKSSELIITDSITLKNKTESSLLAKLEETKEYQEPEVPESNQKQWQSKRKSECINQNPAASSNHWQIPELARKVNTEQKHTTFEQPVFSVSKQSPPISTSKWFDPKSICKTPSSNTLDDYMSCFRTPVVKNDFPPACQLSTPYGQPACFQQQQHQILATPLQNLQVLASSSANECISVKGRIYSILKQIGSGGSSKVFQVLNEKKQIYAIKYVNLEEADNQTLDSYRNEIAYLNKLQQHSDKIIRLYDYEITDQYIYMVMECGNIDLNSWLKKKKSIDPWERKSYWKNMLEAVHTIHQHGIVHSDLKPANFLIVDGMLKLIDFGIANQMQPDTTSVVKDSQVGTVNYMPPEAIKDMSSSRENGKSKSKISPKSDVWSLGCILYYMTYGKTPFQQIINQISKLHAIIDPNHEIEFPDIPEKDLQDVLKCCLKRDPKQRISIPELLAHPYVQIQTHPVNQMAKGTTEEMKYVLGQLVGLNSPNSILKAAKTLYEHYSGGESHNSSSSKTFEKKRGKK
Kind of assay: TTK inhibition assay (indirect ELISA). The following applies: read-out: TTK IC50 Range. It is filed as biochemical.

The subject of the next assay is Breast cancer cells. The assay can be described thus: Cancer cell line growth inhibition (SRB assay). In kind it is cell-based. The following applies: Homo sapiens; MDA-MB-468; read-out: Cancer Cell Line GI50 Range MDA-MB-468. In general terms: The SRB assay estimates cell density from bound dye.
Assay [1] relates to colon cancer cells (HCT116). The assay can be described thus: Cancer cell line growth inhibition (SRB assay). The following applies: Homo sapiens, HCT-116; read-out: Cancer Cell Line GI50 Range HCT116. In kind it is cell-based.
For assay [2], the system named is ovarian cancer cells (PA-1). Kind of assay: Cancer cell line growth inhibition (SRB assay). In kind it is cell-based. The following applies: Homo sapiens, PA-1; read-out: Cancer Cell Line GI50 Range PA-1.
In another assay the test system is TICs (Colon 12). Kind of assay: Colon tumor-initiating cell growth inhibition (Alamar Blue). It is filed as cell-based. The following applies: 216 h; Colon 12 TICs, 9 days; read-out: Tumor Initiating Cell GI50 Range Colon 12.
For the next assay, the system named is TICs (Ovarian 2393A). The assay can be described thus: Ovarian tumor-initiating cell growth inhibition (Alamar Blue). It is filed as cell-based. The following applies: 144 h; Ovarian 2393A TICs, 6 days; read-out: Tumor Initiating Cell GI50 Range Ovarain 2393A. For orientation: The colour change of resazurin is a common sign of viable cells or microbes.

Text for TICs (Colon 12): (§1) Materials and Methods: Non-tissue or tissue cultured treated T-75 flask and 96-well plates were purchased from VWR. Vitamin B-27 supplement, MEM NEAA (minimum essential medium non essential amino acids), sodium pyruvate, L-glutamine, N2 supplement, penicillin-streptomycin and fungizone/amphotericin B were obtained from Invitrogen. Lipid mixture, heparin and EGF were purchased from Sigma; bFGF from BD Biosciences. Tumor Initiating Cells (TICs) from colon were routinely maintained using non-tissue cultured treated T-75 flasks in DMEM:F12 medium containing 0.2×B-27 supplement, 4 ug/ml heparin, 1×MEM NEAA, 1× sodium pyruvate, 1 mM glutamine, 10 pg/ul bFGF, 20 pg/ul EGF, 1×N2 supplement, lipid mixture, penicillin-streptomycin and fungizone/amphotericin B. Ovarian TICs were routinely maintained using tissue cultured treated T-75 flasks in DMEM:F12 medium containing 1×B-27 supplement, 4 ug/ml heparin, 20 pg/ul bFGF, 20 pg/ul EGF and penicillin-streptomycin.
(§2) Assay Protocol: Compounds described herein were dissolved in DMSO and further diluted in cell culture medium for GI50 determination. Colon TICs were trypsinized and seeded into non-tissue cultured treated 96-well plates with 4,000 cells/well. After 24 h, compound was added into the cell culture at different concentrations, and the final concentration of DMSO was adjusted to 0.1%. Cells were then cultured at 37° C. for 9 days. Ovarian TICs were trypsinized and seeded into tissue cultured treated 96-well plates with 1,000 cells/well. After 24 h, compound was added into the cell culture at different concentrations, and the final concentration of DMSO was adjusted to 0.1%. Cells were then cultured at 37° C. for 6 days. Cell viability was assessed by Alamar Blue assay: 10 ul of Alamar Blue was added into each well. After 4 hours incubation at 37° C., fluorescence was recorded at excitation 544 and emission 590. GI50 (Growth inhibition) was calculated using GraphPad Prism 4.0 software.
Text for TICs (Ovarian 2393A): as §1, §2

For the molecule `O=C(N[C@@H](c1ccccn1)C1CCCC1)c1ccc2[nH]nc(-c3ccc(N4CCN(C5COC5)CC4)cc3)c2c1` [Example A411, (R)-N-(cyclopentyl(pyridin-2-yl)methyl)-3-(4-(4-(oxetan-3-yl)piperazin-1-yl)phenyl)-1H-indazole-5-carboxamide], the IC50 at human TTK is < 100 nM. For the same molecule, the GI50 (in the assay on Breast cancer cells; in assay [1]; in assay [2]; with TICs (Colon 12); in the assay on TICs (Ovarian 2393A)) was < 100 nM throughout.
For the molecule `CC1=CC2(CCN(C)CC2)Oc2ccc(-c3n[nH]c4ccc(C(=O)N[C@H](c5ccccc5Cl)C(C)C)cc34)cc21` [Example A258, (S)-N-(1-(2-chlorophenyl)-2-methylpropyl)-3-(1′,4-dimethylspiro[chromene-2,4′-piperidin]-6-yl)-1H-indazole-5-carboxamide], the IC50 on human TTK is < 100 nM. Moreover, the GI50 (in the assay on Breast cancer cells; in assay [1]; in assay [2]; in the assay on TICs (Colon 12); in the assay with TICs (Ovarian 2393A)) was < 100 nM in each case.
On to `O=C(NCC1(N2CCOCC2)CCCCC1)c1ccc2[nH]nc(-c3ccc(N4[C@@H]5CC[C@H]4C[C@@H](O)C5)cc3)c2c1` [Example A508, 3-(4-((1R,3R,5S)-3-hydroxy-8-azabicyclo[3.2.1]octan-8-yl)phenyl)-N-((1-morpholinocyclohexyl)methyl)-1H-indazole-5-carboxamide], for which, at human TTK, the IC50 is < 100 nM. In addition, the 50% growth inhibitory concentration (GI50) (in the assay with Breast cancer cells; in assay [1]; in assay [2]; in the assay on TICs (Colon 12); with TICs (Ovarian 2393A)) was < 100 nM each time.
Regarding `O=C(NC(c1ccsc1)C1CCC1)c1ccc2[nH]nc(-c3ccc(O[C@H]4C[C@H]5CC[C@@H](C4)N5C4COC4)cc3)c2c1` (stereo partly drawn) [Example A326, N-(cyclobutyl(thiophen-3-yl)methyl)-3-(4-(((1R,3R,5S)-8-(oxetan-3-yl)-8-azabicyclo[3.2.1]octan-3-yl)oxy)phenyl)-1H-indazole-5-carboxamide], the IC50 at human TTK is < 100 nM. Besides, the GI50 is 100 to 500 nM in the assay on Breast cancer cells; 100 to 500 nM in assay [1]; 100 to 500 nM in assay [2]; < 100 nM in the assay on TICs (Colon 12); < 100 nM in the assay with TICs (Ovarian 2393A).
Regarding `CC(C)C(NC(=O)c1ccc2[nH]nc(-c3ccc(OC4CC5CCC(C4)N5C)cc3)c2c1)c1ccccn1` (stereo not drawn) [Example A395, N-(2-methyl-1-(pyridin-2-yl)propyl)-3-(4-((8-methyl-8-azabicyclo [3.2.1]octan-3-yl)oxy)phenyl)-1H-indazole-5-carboxamide], on human TTK, the concentration for half-maximal inhibition (IC50) was < 100 nM. The 50% growth inhibitory concentration (GI50) in the assay on Breast cancer cells is < 100 nM; in assay [1] it was < 100 nM; in assay [2] it was < 100 nM; with TICs (Colon 12), < 100 nM; in the assay with TICs (Ovarian 2393A) it was 100 to 500 nM.
Regarding `O=C(NCC1(N2CCOCC2)CCCCC1)c1ccc2[nH]nc(-c3ccc(N4CCNCC4)cc3)c2c1` [Example A505, N-((1-morpholinocyclohexyl)methyl)-3-(4-(piperazin-1-yl)phenyl)-1H-indazole-5-carboxamide], the half-maximal inhibitory concentration (IC50) on human TTK was < 100 nM. Also, the concentration for 50% growth inhibition (GI50) was 100 to 500 nM with Breast cancer cells; < 100 nM in assay [1]; < 100 nM in assay [2]; > 500 nM in the assay on TICs (Colon 12); 100 to 500 nM in the assay on TICs (Ovarian 2393A).
As for `CN1C2CCC1CC(Oc1ccc(-c3n[nH]c4ccc(C(=O)N[C@@H](c5ccccc5)C5CC5)cc34)cc1)C2` (stereo partly drawn) [Example A378, N-((R)-cyclopropyl(phenyl)methyl)-3-(4-(((1R,3R,5S)-8-methyl-8-azabicyclo[3.2.1]octan-3-yl)oxy)phenyl)-1H-indazole-5-carboxamide], the IC50 on human TTK is < 100 nM. The GI50 with Breast cancer cells is 100 to 500 nM; in assay [1], < 100 nM; in assay [2] it was < 100 nM; in the assay with TICs (Colon 12), 100 to 500 nM; with TICs (Ovarian 2393A) it was 100 to 500 nM.
Consider `CN1[C@@H]2CC[C@H]1C[C@@H](Oc1ccc(-c3n[nH]c4ccc(C(=O)NC(c5ccsc5)C5CCC5)cc34)cc1)C2` (stereo partly drawn) [Example A283, N-(cyclobutyl(thiophen-3-yl)methyl)-3-(4-(((1R,3R,5S)-8-methyl-8-azabicyclo[3.2.1]octan-3-yl)oxy)phenyl)-1H-indazole-5-carboxamide], for which the half-inhibitory concentration (IC50) on human TTK was < 100 nM. The concentration for 50% growth inhibition (GI50) with Breast cancer cells was 100 to 500 nM; in assay [1], < 100 nM; in assay [2], < 100 nM; in the assay with TICs (Colon 12), 100 to 500 nM; in the assay with TICs (Ovarian 2393A), 100 to 500 nM.
Consider `CN1C2CCC1CC(Oc1ccc(-c3n[nH]c4ccc(C(=O)N[C@H](c5ccccc5)C5CC5)cc34)cc1)C2` (stereo partly drawn) [Example A376, N-((S)-cyclopropyl(phenyl)methyl)-3-(4-(((1R,3R,5S)-8-methyl-8-azabicyclo[3.2.1]octan-3-yl)oxy)phenyl)-1H-indazole-5-carboxamide], for which, at human TTK, the IC50 was < 100 nM. Also, the GI50 was 100 to 500 nM in the assay with Breast cancer cells; < 100 nM in assay [1]; < 100 nM in assay [2]; 100 to 500 nM in the assay on TICs (Colon 12); 100 to 500 nM with TICs (Ovarian 2393A).
Regarding `O=C(NC(c1ccccc1)C1CC1)c1ccc2[nH]nc(-c3ccc(O[C@H]4C[C@H]5CC[C@@H](C4)N5C4COC4)cc3)c2c1` (stereo partly drawn) [Example A321, N-(cyclopropyl(phenyl)methyl)-3-(4-(((1R,3R,5S)-8-(oxetan-3-yl)-8-azabicyclo[3.2.1]octan-3-yl)oxy)phenyl)-1H-indazole-5-carboxamide], the IC50 at human TTK is < 100 nM. The GI50 in the assay on Breast cancer cells is 100 to 500 nM; in assay [1], 100 to 500 nM; in assay [2] it was 100 to 500 nM; in the assay on TICs (Colon 12), < 100 nM; in the assay on TICs (Ovarian 2393A), 100 to 500 nM.
In the case of `CC(C)[C@H](NC(=O)c1ccc2[nH]nc(-c3ccc(N4CC(C5COC5)C4)cc3)c2c1)c1ccccc1Cl` [Example A310, (S)-N-(1-(2-chlorophenyl)-2-methylpropyl)-3-(4-(3-(oxetan-3-yl)azetidin-1-yl)phenyl)-1H-indazole-5-carboxamide], the 50% inhibitory concentration (IC50) at human TTK was < 100 nM. Further, the concentration for 50% growth inhibition (GI50) (in the assay on Breast cancer cells; in assay [1]; in assay [2]; in the assay on TICs (Colon 12); in the assay with TICs (Ovarian 2393A)) was < 100 nM in each case.
In the case of `CN1CCC(Oc2ccc(-c3n[nH]c4ccc(C(=O)NC(c5ccccn5)C5CC5)cc34)cc2S(C)(=O)=O)CC1` (stereo not drawn) [Example A245, N-(cyclopropyl(pyridin-2-yl)methyl)-3-(4-((1-methylpiperidin-4-yl)oxy)-3-(methylsulfonyl)phenyl)-1H-indazole-5-carboxamide], at human TTK, the IC50 was < 100 nM. In addition, the GI50 in the assay on Breast cancer cells was > 500 nM; in assay [1], 100 to 500 nM; in assay [2] it was 100 to 500 nM; in the assay on TICs (Colon 12), > 500 nM; with TICs (Ovarian 2393A), > 500 nM.
As to `O=C(NCC1(N2CCOCC2)CCCCC1)c1ccc2[nH]nc(-c3ccc(N4CCN(CCO)CC4)cc3)c2c1` [Example A459, 3-(4-(4-(2-hydroxyethyl)piperazin-1-yl)phenyl)-N-((1-morpholinocyclohexyl)methyl)-1H-indazole-5-carboxamide], the 50% inhibitory concentration (IC50) on human TTK was < 100 nM. Moreover, the GI50 was 100 to 500 nM in the assay on Breast cancer cells; < 100 nM in assay [1]; < 100 nM in assay [2]; 100 to 500 nM in the assay with TICs (Colon 12); 100 to 500 nM with TICs (Ovarian 2393A).
